Some test systems named below: SK-OV-3 ovarian; KM12 colon; 786-0 renal; NCI/ADR-RES ovarian; A498 renal; MDA-MB-231 breast; SW-620 colon; RPMI-8226 leukemia; OVCAR-5 ovarian; UACC-257 melanoma.
Test in all cases: growth of human tumour cells (NCI), 48 h

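The compound was tested at five concentrations on cells cultured in 96-well plates, with a 48-hour exposure period. GI50 is the concentration that inhibits growth by half. At the TGI there is no net growth.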

For `Cc1ccc(-c2cc(O)c(-c3ccc(C)cc3C)cc2O)c(C)c1`, the GI50 is 11 µM in the assay on SK-OV-3 ovarian; 8.2 µM with KM12 colon; 7.65 µM in the assay on 786-0 renal; 4.5 µM with NCI/ADR-RES ovarian; 5.32 µM with A498 renal; 3.94 µM in the assay on MDA-MB-231 breast. Besides, the GI50 is 5.64 µM in the assay with SW-620 colon, 4.93 µM with RPMI-8226 leukemia, 18 µM in the assay with OVCAR-5 ovarian and 5.81 µM in the assay with UACC-257 melanoma. Moreover, the TGI with SK-OV-3 ovarian is 27.3 µM; in the assay with KM12 colon it was 26.8 µM; in the assay with 786-0 renal, 21.2 µM; with NCI/ADR-RES ovarian, 32.9 µM; with A498 renal, 18 µM; in the assay on MDA-MB-231 breast, 21 µM. In addition, the TGI was determined as 18.5 µM with SW-620 colon, 55 µM in the assay on RPMI-8226 leukemia, 33.5 µM in the assay on OVCAR-5 ovarian and 19.1 µM in the assay with UACC-257 melanoma.
As to `COc1cc(NC(=O)C2=C(N3CCOCC3)/C(=C/c3ccc(Cl)cc3)CC2)cc(OC)c1OC`, the GI50 in the assay on SK-OV-3 ovarian was 21.7 µM; with KM12 colon, over 100 µM; in the assay on 786-0 renal, 10.4 µM; with NCI/ADR-RES ovarian, 42.5 µM; in the assay on A498 renal, 4.97 µM; in the assay on MDA-MB-231 breast, 26.5 µM. For the same compound, the GI50 was over 100 µM with SW-620 colon, 2.97 µM in the assay with RPMI-8226 leukemia, over 100 µM in the assay with OVCAR-5 ovarian and over 100 µM in the assay with UACC-257 melanoma. Also, the TGI in the assay on SK-OV-3 ovarian was 62.8 µM; in the assay with KM12 colon it was over 100 µM; with 786-0 renal, 33.1 µM; in the assay with NCI/ADR-RES ovarian, over 100 µM; with A498 renal it was 27.7 µM; in the assay with MDA-MB-231 breast, over 100 µM. Further, the TGI in the assay with SW-620 colon, with RPMI-8226 leukemia, in the assay on OVCAR-5 ovarian and in the assay with UACC-257 melanoma was over 100 µM throughout.
Consider `CCN(CC)C(=S)[S][Bi]([S]C(=S)N(CC)CC)[S]C(=S)N(CC)CC`, for which the GI50 in the assay on SK-OV-3 ovarian was 1.74 µM; in the assay on KM12 colon, 1.61 µM; in the assay with 786-0 renal, 0.163 µM; in the assay on NCI/ADR-RES ovarian it was 0.277 µM; in the assay with A498 renal it was 1.24 µM; in the assay with MDA-MB-231 breast, 0.133 µM. Further, the GI50 is 0.0916 µM with SW-620 colon, 0.23 µM in the assay on RPMI-8226 leukemia, 0.539 µM with OVCAR-5 ovarian and 0.178 µM with UACC-257 melanoma. Further, the TGI came to 3.14 µM with SK-OV-3 ovarian; 3.1 µM in the assay with KM12 colon; 0.299 µM with 786-0 renal; 0.85 µM in the assay with NCI/ADR-RES ovarian; 2.49 µM in the assay on A498 renal; 0.338 µM in the assay on MDA-MB-231 breast. For the same compound, the TGI in the assay with SW-620 colon is 0.229 µM; with RPMI-8226 leukemia it was 2.15 µM; with OVCAR-5 ovarian it was 1.07 µM; in the assay on UACC-257 melanoma it was 0.384 µM.
In the case of `O=C(CCc1ccc(O)cc1)N/N=C/c1cc(Br)ccc1O`, the GI50 in the assay with SK-OV-3 ovarian is 6.35 µM; in the assay with KM12 colon it was 3.36 µM; with 786-0 renal it was 3.73 µM; with NCI/ADR-RES ovarian it was 2.34 µM; in the assay with A498 renal, 9.81 µM; in the assay on MDA-MB-231 breast, 4.45 µM. The GI50 in the assay on SW-620 colon is 3.83 µM; in the assay on RPMI-8226 leukemia, 3.57 µM; in the assay on OVCAR-5 ovarian, 6.77 µM; in the assay on UACC-257 melanoma, 2.62 µM. Also, the TGI in the assay on SK-OV-3 ovarian is over 100 µM; in the assay with KM12 colon, 31.5 µM; in the assay with 786-0 renal, 70.7 µM; in the assay on NCI/ADR-RES ovarian, over 100 µM; in the assay on A498 renal, 49.6 µM; in the assay with MDA-MB-231 breast it was 53.6 µM. Moreover, the TGI in the assay with SW-620 colon is over 100 µM; in the assay on RPMI-8226 leukemia, 33.3 µM; in the assay with OVCAR-5 ovarian, over 100 µM; with UACC-257 melanoma, 11.4 µM.
With `C/C(=N\NC(=S)N(C)C)c1ccccn1`, the TGI was 0.889 µM in the assay with SK-OV-3 ovarian; 20 µM with KM12 colon; 11.3 µM in the assay on 786-0 renal; 2.31 µM in the assay with NCI/ADR-RES ovarian; 8.11 µM in the assay with A498 renal; 17.6 µM in the assay with MDA-MB-231 breast. Also, the TGI in the assay on SW-620 colon was 35.4 µM; in the assay on RPMI-8226 leukemia it was 31.9 µM; with OVCAR-5 ovarian it was 6.85 µM. For the same compound, the GI50 in the assay with KM12 colon is 0.22 µM; in the assay on 786-0 renal, 0.0154 µM; in the assay with NCI/ADR-RES ovarian, 0.000321 µM; in the assay with MDA-MB-231 breast it was 0.291 µM; with RPMI-8226 leukemia, 0.000878 µM; in the assay with UACC-257 melanoma, 0.000438 µM.
Take `Oc1c(CN2CCN(c3ccccc3)CC2)cc(Br)c2cccnc12`: the TGI with SK-OV-3 ovarian is 26.8 µM; with KM12 colon it was over 100 µM; with 786-0 renal, 14.5 µM; with NCI/ADR-RES ovarian it was over 100 µM; in the assay on A498 renal it was over 100 µM; in the assay with MDA-MB-231 breast it was 15.7 µM. The TGI was over 100 µM in the assay on SW-620 colon, over 40.4 µM in the assay with RPMI-8226 leukemia, over 67.4 µM in the assay on OVCAR-5 ovarian and over 100 µM in the assay with UACC-257 melanoma.
Regarding `CCCCCCCCCCCCCCCC1=NC(C)(C)CN1C(C)C`, the GI50 in the assay on SK-OV-3 ovarian is 1.85 µM; in the assay on KM12 colon, 1.33 µM; in the assay on 786-0 renal it was 1.59 µM; in the assay with NCI/ADR-RES ovarian, 1.78 µM; in the assay on A498 renal, 2.41 µM; with MDA-MB-231 breast, 1.61 µM. The GI50 was 1.52 µM in the assay with SW-620 colon, 1.04 µM in the assay with RPMI-8226 leukemia, 1.55 µM with OVCAR-5 ovarian and 1.77 µM in the assay with UACC-257 melanoma. In addition, the TGI in the assay on SK-OV-3 ovarian came to 3.57 µM; with KM12 colon, 2.6 µM; in the assay on 786-0 renal, 2.94 µM; in the assay on NCI/ADR-RES ovarian, 4.33 µM; in the assay on A498 renal, 6.24 µM; in the assay on MDA-MB-231 breast it was 3.1 µM. The TGI in the assay on SW-620 colon is 2.85 µM; in the assay on RPMI-8226 leukemia, 2.82 µM; in the assay with OVCAR-5 ovarian, 2.93 µM; in the assay with UACC-257 melanoma, 3.31 µM.
On to `O=c1oc2c(C(F)(F)F)cccc2cc1-c1csc(Nc2ccc(OCCF)cc2)n1`, for which the GI50 was 0.041 µM in the assay with SK-OV-3 ovarian; 0.0375 µM in the assay with KM12 colon; 0.0611 µM in the assay on 786-0 renal; 0.0401 µM with NCI/ADR-RES ovarian; 0.0353 µM in the assay on A498 renal; 0.0663 µM with MDA-MB-231 breast. For the same compound, the GI50 in the assay with SW-620 colon was 0.0468 µM; in the assay on RPMI-8226 leukemia, 0.0406 µM; in the assay with OVCAR-5 ovarian, 0.231 µM; in the assay with UACC-257 melanoma, 0.653 µM. Also, the TGI with SK-OV-3 ovarian is 23.2 µM; in the assay with KM12 colon it was 17.5 µM; with NCI/ADR-RES ovarian it was 66.5 µM; with A498 renal, 20.9 µM; in the assay with MDA-MB-231 breast, over 35.9 µM; in the assay with SW-620 colon, over 100 µM. The TGI was 42.7 µM with RPMI-8226 leukemia, over 100 µM in the assay on OVCAR-5 ovarian and over 100 µM in the assay with UACC-257 melanoma.

The record behind these values is PubChem BioAssay (NCI).
